According to patent US20250319162A1, “METHODS AND MATERIALS FOR TREATING OBESITY” (Regents of the University of California, priority 2024, published 2025):
“Also recorded” adds a separate entry of the source.

Experiments:
[1] = RalA inhibitor treatment of mice: body weight, tissue weight, blood glucose; assay type: in vivo
From the text: To test the effects of RalA inhibition in reducing body weight, tissue weight and blood glucose level in mice, mice were weighed before injecting with either RalA inhibitor, BQU57, or DMSO (vehicle). Post injection, mice were weighed every 2 days.

immortalized adipocytes = experiment: In vitro lipolysis (FFA and glycerol release) in immortalized adipocytes; assay type: cell-based, mice
Method: Primary preadipocytes from Rala^f/f mice were immortalized by retroviral transduction of pBabe-zeo-LT-ST (SV40) and selection by Zeocin^75. Single-cell clones were selected and tested for differentiation capacity. […] To generate Rala KO cells, immortalized Rala^f/f (WT) preadipocytes were transduced with lentiviral Cre with 8 μg/mL Polybrene for 12 hours, then cultured in DMEM/F12-FBS medium. Cre recombinase efficiency was tested in preadipocytes and adipocytes. Once 95-100% confluency was reached (day 0), differentiation was induced as described above. On the day of the experiment, cells were starved in DMEM/F12 medium for 3 hours before treatments.
Fully differentiated primary adipocytes in a 24-well plate were serum-starved in lipolysis medium (2% BSA-phenol-red-free DMEM) for 3 hours. For insulin treatment, 100 nM insulin was added to cells for 30 minutes starting at 2.5 hours of starvation. After starvation, the medium was replaced with 0.5 mL fresh lipolysis medium with vehicle, 1 μM CL-316,243 (CL), 100 nM insulin or in combination. The medium was collected 1 hour after incubation at 37° C. Released FFAs and free glycerol levels were measured using 100 μL medium with a NEFA kit (WAKO) and Free Glycerol Reagent (Sigma) according to the manufacturer's protocol.

[2] = test system: primary and immortalized adipocytes; experiment: TMRM live-cell imaging of mitochondrial membrane potential in adipocytes; assay type: cell-based, mice; conditions: adipocytes treated with 1 μM CL-316,243 for indicated times
From the text: FIGS. 10A-10J. […] FIG. 10A: Calculation of individual OCR in differentiated primary adipocytes (n=8 biological samples). P=0.0008, P=0.0175, P=0.0042. FIG. 10B: Representative immunoblot of RalA and β-Tubulin in immortalized preadipocytes and differentiated adipocytes. (n=3 biological samples). FIG. 10C: Quantification of mean TMRM fluorescence intensity in primary adipocytes and immortalized adipocytes (n=3 independent cells). P<0.0001, P<0.0001. FIG. 10D: Time course TMRM intensity quantification in primary and immortalized adipocytes (n=4 biological samples). Adipocytes were treated with 1 μM CL-316,243 (CL) for indicated times. P=0.0015, P=0.0044 (left panel). P<0.0001, P=0.0154, P=0.0095 (right panel). FIGS. 10E and 10F: Quantification of NEFA (FIG. 10E) and free glycerol (FIG. 10F) released into medium from immortalized adipocytes (n=3 biological samples). Cells were treated with 1 μM CL, 100 nM insulin, or in combination prior to medium collection. P=0.0301, P=0.0051 (FIG. 10F). FIGS. 10G and 10H: Plasma levels of NEFA (FIG. 10G) and free glycerol (FIG. 10H) in CD-fed Rala^f/f and Rala^AKO mice (n=6). P=0.0027, P=0.0173 (FIG. 10H). Mice were i.p. injected with CL or vehicle prior to blood sampling. FIGS. 10I and 10J: Plasma levels of NEFA (FIG. 10I) and free glycerol (FIG. 10J) in CD-fed Rala^f/f (n=4) and Rala^AKO (n=5) mice. […]

[3] = test system: primary differentiated adipocytes; experiment: Seahorse oxygen consumption rate in differentiated primary adipocytes; assay type: cell-based, mice; conditions: addition of etomoxir
Method: The cellular oxygen consumption rate (OCR) was measured using an eXF96 Extracellular Flux Analyzer and analyzed by Agilent Seahorse Wave Software (Seahorse Bioscience). Before performing the assay, 2,500 primary preadipocytes were seeded and differentiated in XF96 microplates. Once fully differentiated, the adipocyte culture medium was changed to assay medium containing 25 mM glucose, 1 mM pyruvate and 2 mM L-glutamine, and 0.5 mM carnitine without phenol red or sodium bicarbonate for 3 hours. Before taking measurements, cells were incubated in a CO2-free incubator for 15 minutes. Basal rates of respiration were measured in assay medium and followed with sequential injections of oligomycin (2 μM), FCCP (0.5 μM) and rotenone with antimycin A (each 0.5 μM). Oxygen consumption values were normalized to total protein content.

[4] = In vivo insulin-suppressed lipolysis; conditions: single injection of insulin, fasted CD-fed control and Rala AKO mice
Method: CD-fed mice were used for in vivo lipolysis. For CL-induced lipolysis, ad libitum-fed mice were i.p. injected with PBS or CL (1 mg/kg) for 60 minutes. Circulating FFAs and free glycerol levels were measured using 2 μL plasma with a NEFA kit (WAKO) and Free Glycerol Reagent (Sigma), respectively. For insulin-suppressed lipolysis, overnight-fasted mice were i.p. injected with insulin (0.5 U/kg) for 60 minutes. Circulating FFAs and free glycerol levels were measured at the indicated conditions.

Cc1nn(C)c2c1C(c1ccc(C(F)(F)F)cc1)C(C#N)=C(N)O2 (centres unmarked) [BQU57]
body weight ([1]; mice injected with BQU57 vs DMSO vehicle, weighed every 2 days, 23 days of treatment): significant weight loss; also recorded: reduced body weight
blood glucose level ([1]; mice, BQU57 vs vehicle group): significant reduction in the blood glucose level
subcutaneous WAT (sWAT) weight ([1]; mice, post treatment with BQU57): marked reduction of subcutaneous WAT (sWAT) weight

C[C@H](Cc1ccc2c(c1)OC(C(=O)[O-])(C(=O)[O-])O2)NC[C@H](O)c1cccc(Cl)c1.[Na+].[Na+] [CL-316,243]
FFA and glycerol release (immortalized adipocytes; 1 μM CL, KO and WT immortalized adipocytes): robustly stimulated FFA and glycerol release
TMRM signal (mitochondrial membrane potential) [2]: TMRM signal declined quickly

CCOC(=O)[C@@]1(CCCCCCOc2ccc(Cl)cc2)CO1 [etomoxir]
difference in maximal respiration (OCR) between KO and control adipocytes [3]: blunted

insulin: insulin used at 100 nM in cells or injected i.p. (human insulin, Sigma)
plasma FFA levels [4]: reduced FFA levels
suppression of CL-induced FFA release (immortalized adipocytes; 100 nM insulin with 1 μM CL, both WT and KO cells): approximately 50%
